This assay has as its target T1, activated JNK3 (Homo sapiens, UniProt P53779).
T1 construct: One such construct encodes amino acid residues Ser40-Glu402 of JNK3α1 and is preceded by Met and Gly residues; Met-Gly (initiation Met plus Gly added to create the NcoI site) (N); made in house; host or cells: E. coli BL21 (DE3)
Description: JNK3 inhibition, spectrophotometric coupled-enzyme assay. Format: biochemical. To be noted: read-out: Activity in the JNK3 Inhibition Assay (Ki rating). The text has this:
A BLAST search of the EST database using the published JNK3α1 cDNA as a query identified an EST clone (#632588) that contained the entire coding sequence for human JNK3α1. Polymerase chain reactions (PCR) using pfu polymerase (Strategene) were used to introduce restriction sites into the cDNA for cloning into the pET-15B expression vector at the NcoI and BamHI sites. The protein was expressed in E. coli. […] This truncation corresponds to Ser 2 of JNK1 and JNK2 proteins, and is preceded by a methionine (initiation) and a glycine residue. The glycine residue was added in order to introduce an NcoI site for cloning into the expression vector. In addition, systematic C-terminal truncations were performed by PCR to identify a construct that give rise to diffraction-quality crystals.
5 mg of JNK3 was diluted to 0.5 mg/ml in 50 mM HEPES buffer, pH 7.5, containing 100 mM NaCl, 5 mM DTT, 20 mM MgCl2 and 1 mM ATP. GST-MKK7(DD) was added at a molar ratio of 1:2.5 GST-MKK7:JNK3. After incubation for 30 minutes at 25° C., the reaction mixture was concentrated 5-fold by ultrafiltration in a Centriprep-30 (Amicon, Beverly, Mass.), diluted to 10 ml and an additional 1 mM ATP added. This procedure was repeated three times to remove ADP and replenish ATP. The final addition of ATP was 5 mM and the mixture incubated overnight at 4° C.
The activated JNK3/GST-MKK7(DD) reaction mixture was exchanged into 50 mM HEPES buffer, pH 7.5, containing 5 mM DTT and 5% glycerol (w/v) by dialysis or ultrafiltration. The reaction mixture was adjusted to 1.1 M potassium phosphate, pH 7.5, and purified by hydrophobic interaction chromatography (at 25° C.) using a Rainin Hydropore column. […] Activated JNK3 (i.e. doubly phosphorylated JNK3) was stored at −70° C. at 0.25-1 mg/ml.
Compounds were assayed for the inhibition of JNK3 by a spectrophotometric coupled-enzyme assay. In this assay, a fixed concentration of activated JNK3 (10 nM) was incubated with various concentrations of a potential inhibitor dissolved in DMSO for 10 minutes at 30° C. in a buffer containing 0.1 M HEPES buffer, pH 7.5, containing 10 mM MgCl2, 2.5 mM phosphoenolpyruvate, 200 μM NADH, 150 μg/mL pyruvate kinase, 50 μg/mL lactate dehydrogenase, and 200 μM EGF receptor peptide. […] The reaction was initiated by the addition of 10 μM ATP and the assay plate is inserted into the spectrophotometer's assay plate compartment that was maintained at 30° C. The decrease of absorbance at 340 nm was monitored as a function of time. The rate data as a function of inhibitor concentration was fitted to competitive inhibition kinetic model to determine the Ki.

T1 sequence (P53779 40-402): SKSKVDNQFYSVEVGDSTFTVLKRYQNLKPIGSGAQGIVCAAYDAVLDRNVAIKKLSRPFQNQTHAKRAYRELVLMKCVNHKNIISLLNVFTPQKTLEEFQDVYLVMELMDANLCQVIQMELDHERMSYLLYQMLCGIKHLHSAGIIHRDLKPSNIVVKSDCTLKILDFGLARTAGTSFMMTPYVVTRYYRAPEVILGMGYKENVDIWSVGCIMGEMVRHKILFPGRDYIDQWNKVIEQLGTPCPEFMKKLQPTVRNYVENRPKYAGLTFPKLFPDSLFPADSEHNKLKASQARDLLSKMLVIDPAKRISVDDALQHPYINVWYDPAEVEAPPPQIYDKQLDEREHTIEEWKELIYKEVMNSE

As for `COc1cccc(C(=O)Nc2nccc(-c3c(-c4ccccc4F)noc3C)n2)c1` [IIIA-55], the Ki was 100 to 1000 nM.
As to `Fc1ccc(-c2noc(COCc3ccccc3)c2-c2ccnc(NC3CCCCC3)n2)cc1` [XIA-52], the Ki is less than 100 nM.
For the molecule `CSc1ccc(Nc2nccc(-c3c(-c4ccccc4)noc3C)n2)cc1` [IIA-46], the Ki was less than 100 nM.
For `Cc1ccccc1-c1noc(C)c1-c1ccnc(Nc2cccc(C#N)c2)n1` [IIA-109], the Ki was less than 100 nM.
As for `COc1ccccc1Nc1nccc(-c2c(-c3ccccc3)noc2C)n1` [IIA-62], the Ki is less than 100 nM.
`Cc1noc(C)c1-c1ccnc(Nc2ccccc2)n1` [IIA-86]: the Ki is more than 1000 nM.
As to `Cc1onc(C(C)(C)C)c1-c1ccnc(Nc2ccccc2)n1` [IIA-90], the Ki was less than 100 nM.
Take `COCc1onc(-c2ccc(F)cc2)c1-c1ccnc(NC2CCCCC2)n1` [XIA-47]: the Ki is less than 100 nM.
`Cc1onc(-c2ccccc2)c1-c1ccnc(Nc2cccc(CC(=O)O)c2)c1` [IIA-133]: the Ki is less than 100 nM.
Consider `OCc1onc(-c2ccc(F)cc2)c1-c1ccnc(NCCc2ccccn2)n1` [XIA-46], for which the Ki was less than 100 nM.
`COC(=O)c1cccc(Nc2nccc(-c3c(-c4cccc(C#N)c4)noc3C)n2)c1` [IIA-129]: the Ki is 100 to 1000 nM.
On to `Cc1onc(-c2cccc(C#N)c2)c1-c1ccnc(Nc2ccccc2)n1` [IIA-127], for which the Ki fell in the range of 100 to 1000 nM.
In the case of `Cc1onc(-c2cc(F)ccc2F)c1-c1ccnc(Nc2ccccc2)n1` [IIA-74], the Ki was 100 to 1000 nM.
The result for `COC(=O)c1ccc(Nc2cc(-c3c(-c4ccccc4)noc3C)ccn2)cc1` [IIA-64] reads less than 100 nM; that for `O=S1(=O)CCC(OCc2onc(-c3ccc(F)cc3)c2-c2ccnc(NC3CCCCC3)n2)C1` (stereo not shown) [XIA-51], less than 100 nM.
The same measure for `Cc1onc(-c2ccccc2)c1-c1ccnc(NC(=O)c2ccc(F)cc2)n1` [IIIA-14]: 100 to 1000 nM; for `COc1cc(C(=O)Nc2nccc(-c3c(-c4cccc(OCc5ccccc5)c4)noc3C)n2)cc(OC)c1OC` [IIIA-30]: 100 to 1000 nM.
For the molecule `Fc1ccc(-c2noc(COC3CCOC3)c2-c2ccnc(NC3CCCCC3)n2)cc1` (stereo not shown) [XIA-50], the Ki is less than 100 nM.
For `COc1ccc(C(=O)Nc2nccc(-c3c(-c4cccc([N+](=O)[O-])c4)noc3C)n2)cc1` [IIIA-36], the Ki was more than 1000 nM.
For `Cc1onc(-c2ccccc2F)c1-c1ccnc(Nc2ccccc2)n1` [IIA-55], the Ki was less than 100 nM.
In the case of `Cc1onc(-c2ccccc2)c1-c1ccnc(NCC2CCCO2)n1` (stereo not shown) [IIAA-29], the Ki lay in the range of 100 to 1000 nM.
With `COc1cc(C(=O)Nc2nccc(-c3c(-c4c(F)cccc4F)noc3C)n2)cc(OC)c1OC` [IIIA-72], the Ki was in the range of 100 to 1000 nM.
As for `Cc1cccc(C(=O)Nc2nccc(-c3c(-c4ccccc4F)noc3C)n2)c1` [IIIA-57], the inhibition constant (Ki) fell in the range of 100 to 1000 nM.
With `Cc1onc(-c2ccccc2F)c1-c1ccnc(NC(=O)c2ccc(F)cc2)n1` [IIIA-59], the inhibitory constant (Ki) lay within 100 to 1000 nM.
The same measure for `Cc1onc(-c2ccccc2)c1-c1ccnc(NC(=O)c2cccc([N+](=O)[O-])c2)n1` [IIIA-74]: less than 100 nM; for `Cc1onc(-c2c(F)cccc2F)c1-c1ccnc(Nc2ccc(C#N)cc2)n1` [IIA-93]: less than 100 nM.
Consider `Cc1onc(-c2ccccc2)c1-c1ccnc(NC(=O)c2ccccc2F)n1` [IIIA-3], for which the Ki fell in the range of 100 to 1000 nM.
In the case of `COc1ccc(Nc2nccc(-c3c(-c4ccccc4)noc3C)n2)c(C)c1` [IIA-61], the Ki was less than 100 nM.
For the molecule `COc1cc(C(=O)Nc2nccc(-c3c(-c4cccc(F)c4)noc3C)n2)cc(OC)c1OC` [IIIA-52], the inhibition constant (Ki) lay in the range of 100 to 1000 nM.
Turning to `Cc1onc(-c2ccccc2)c1-c1ccnc(Nc2cccc3ccccc23)n1` [IIAA-13], the Ki is less than 100 nM.
As for `Cc1onc(-c2cccc(C(F)(F)F)c2)c1-c1ccnc(Nc2ccccc2)n1` [IIA-82], the Ki lay in the range of 100 to 1000 nM.
The same measure for `CCOC(=O)c1ccc(Nc2nccc(-c3c(-c4cccc([N+](=O)[O-])c4)noc3C)n2)cc1` [IIA-128]: 100 to 1000 nM; for `COc1ccc(C(=O)Nc2nccc(-c3c(-c4ccccc4C)noc3C)n2)cc1` [IIIA-20]: 100 to 1000 nM.
Consider `CC(=O)Nc1cccc(C(=O)Nc2nccc(-c3c(-c4ccccc4)noc3C)n2)c1` [IIIA-75], for which the Ki lay within 100 to 1000 nM.
The same measure for `Cc1onc(-c2ccccc2)c1-c1ccnc(Nc2cccc(CCC(=O)O)c2)c1` [IIA-132]: less than 100 nM; for `Cc1onc(-c2ccccc2)c1-c1ccnc(NC(=O)C2CCCC2)n1` [XA-3]: 100 to 1000 nM; for `Cc1onc(-c2ccccc2)c1-c1ccnc(Nc2ccc(C(=O)O)cc2)c1` [IIA-53]: less than 100 nM.
As to `COc1cc(OC)cc(C(=O)Nc2nccc(-c3c(-c4c(F)cccc4F)noc3C)n2)c1` [IIIA-66], the Ki was 100 to 1000 nM.
Regarding `COc1cc(C(=O)Nc2nccc(-c3c(-c4cccc(C#N)c4)noc3C)n2)cc(OC)c1OC` [IIIA-38], the Ki is more than 1000 nM.
Regarding `Cc1ccc2cc(Nc3nccc(-c4c(-c5cccc(C#N)c5)noc4C)n3)ccc2n1` [IIAA-23], the Ki fell in the range of 100 to 1000 nM.
On to `Cc1onc(-c2cc(F)cc(F)c2)c1-c1ccnc(Nc2ccccc2)n1` [IIA-83], for which the Ki was in the range of 100 to 1000 nM.
The result for `Cc1onc(-c2cccc(F)c2)c1-c1ccnc(NC(=O)c2cccc(C#N)c2)n1` [IIIA-51] reads 100 to 1000 nM.
Consider `COc1ccc(C(=O)Nc2nccc(-c3c(-c4ccccc4)noc3C)n2)cc1OC` [IIIA-8], for which the Ki was in the range of 100 to 1000 nM.
Consider `Cc1ccnc(Nc2nccc(-c3c(-c4ccccc4)noc3C)n2)c1` [IIAA-12], for which the Ki is less than 100 nM.
As for `Cc1onc(-c2ccccc2)c1-c1ccnc(NC(=O)c2ccccc2)n1` [IIIA-1], the Ki is 100 to 1000 nM.
Consider `Cc1ccccc1-c1noc(C)c1-c1ccnc(Nc2ccccc2)n1` [IIA-104], for which the Ki is less than 100 nM.
Turning to `Cc1onc(-c2cccc(F)c2F)c1-c1ccnc(Nc2ccccc2)n1` [IIA-80], the Ki lay in the range of 100 to 1000 nM.
The result for `Cc1onc(-c2c(F)cccc2F)c1-c1ccnc(Nc2cccc(C#N)c2)n1` [IIA-92] reads less than 100 nM.
The result for `COc1cc(OC)cc(C(=O)Nc2nccc(-c3c(-c4ccccc4C)noc3C)n2)c1` [IIIA-21] reads 100 to 1000 nM; that for `COc1cc(C(=O)Nc2nccc(-c3c(-c4ccccc4C)noc3C)n2)cc(OC)c1OC` [IIIA-18], 100 to 1000 nM.
The same measure for `Cc1onc(-c2ccc(F)cc2)c1-c1ccnc(Nc2ccccc2)n1` [IIA-11]: less than 100 nM; for `Cc1onc(-c2ccccc2)c1-c1ccnc(NC2Cc3ccccc3C2)n1` [IIAA-25]: less than 100 nM; for `COc1cc(C(=O)Nc2nccc(-c3c(-c4cccc([N+](=O)[O-])c4)noc3C)n2)cc(OC)c1OC` [IIIA-34]: more than 1000 nM.
With `Cc1onc(-c2ccccc2)c1-c1ccnc(Nc2cccc(C(=O)O)c2)c1` [IIA-43], the Ki was less than 100 nM.
Turning to `CCOCc1onc(-c2ccc(F)cc2)c1-c1ccnc(NC2CCCCC2)n1` [XIA-48], the Ki is less than 100 nM.
For the molecule `COc1cc(OC)cc(C(=O)Nc2nccc(-c3c(-c4cccc(OCc5ccccc5)c4)noc3C)n2)c1` [IIIA-33], the Ki was in the range of 100 to 1000 nM.
The result for `Cc1onc(-c2ccccc2)c1-c1ccnc(NC2CCN(Cc3ccccc3)CC2)n1` [IIAA-27] reads 100 to 1000 nM; that for `Cc1onc(-c2c(F)cccc2F)c1-c1ccnc(NC(=O)c2ccc(F)cc2)n1` [IIIA-69], 100 to 1000 nM.
As to `CSc1ccc(Nc2nccc(-c3c(-c4c(F)cccc4F)noc3C)n2)cc1` [IIA-97], the inhibition constant Ki is less than 100 nM.
`Cc1ccccc1-c1noc(C)c1-c1ccnc(Nc2ccc(C#N)c(F)c2)n1` [IIA-105]: the Ki is less than 100 nM.
Turning to `COc1cccc(C(=O)Nc2nccc(-c3c(-c4cccc(F)c4)noc3C)n2)c1` [IIIA-46], the Ki lay in the range of 100 to 1000 nM.
Turning to `Cc1onc(-c2cccc(F)c2)c1-c1ccnc(NC(=O)c2ccc3ccccc3c2)n1` [IIIA-53], the Ki is 100 to 1000 nM.
In the case of `Cc1onc(-c2ccccc2)c1-c1ccnc(Nc2cccc(C#N)c2)n1` [IIA-7], the Ki is less than 100 nM.
The same measure for `COc1cc(OC)cc(C(=O)Nc2nccc(-c3c(-c4ccccc4C(F)(F)F)noc3C)n2)c1` [IIIA-25]: more than 1000 nM.

The term Ki denotes the dissociation constant of the complex between target and ligand, obtained from inhibition or displacement.

Values taken from patent US6693108B2, “Inhibitors of c-JUN N terminal kinases (JNK) and other protein kinases” (Vertex Pharmaceuticals Incorporated, priority 1999, dated 2004).
